# Key:
# [1] = Solubility of the compound in surfactant solutions; format: physicochemical
# From the text: To increase solubility of the compound and promote increase bioavailability, a number of surfactants were screened. The table below lists the solubilities of 1-[(3R,4S)-4-cyanotetrahydropyran-3-yl]-3-[(2-fluoro-6-methoxy-4-pyridyl)amino]pyrazole-4-carboxamide in the tested surfactant solutions.
# [2] = tested on: cIL-31 induced pruritus; conditions: with respect to placebo; similar magnitude to oclacitinib (Apoquel); from WO 2018/108969; cited from earlier work
structure (smiles),measurement,setting,value
"COc1cc(Nc2nn([C@H]3COCC[C@@H]3C#N)cc2C(N)=O)cc(F)n1 [compound of Formula (I), 1-[(3R,4S)-4-cyanotetrahydropyran-3-yl]-3-[(2-fluoro-6-methoxy-4-pyridyl)amino]pyrazole-4-carboxamide]",solubility,"[1]; 1% polysorbate (Tween 80) solution, aqueous with cosolvent or surfactant or cyclodextrin, 1% polysorbate (Tween 80)",50.3 µg/mL
same,solubility,"[1]; 1% sodium lauryl sulfate (SLS) solution, aqueous with cosolvent or surfactant or cyclodextrin, 1% sodium lauryl sulfate (SLS)",195 µg/mL
same,solubility,"[1]; 10% ELP solution, aqueous with cosolvent or surfactant or cyclodextrin, 10% ELP",541 µg/mL
same,solubility,"[1]; 10% P407 solution, aqueous with cosolvent or surfactant or cyclodextrin, 10% P407",217 µg/mL
same,solubility,"[1]; 10% Poloxamer 124 solution, aqueous with cosolvent or surfactant or cyclodextrin, 10% Poloxamer 124",108 µg/mL
same,solubility,"[1]; 10% Poloxamer 188 solution, aqueous with cosolvent or surfactant or cyclodextrin, 10% Poloxamer 188",109 µg/mL
same,solubility,"[1]; 10% hydrogenated castor oil (RH40) solution, aqueous with cosolvent or surfactant or cyclodextrin, 10% hydrogenated castor oil (RH40)",489 µg/mL
same,solubility,"[1]; 10% polyvinylpyrrolidone (PVP) solution, aqueous with cosolvent or surfactant or cyclodextrin, 10% polyvinylpyrrolidone (PVP)",133 µg/mL
same,solubility,"[1]; 30% HS15 solution, aqueous with cosolvent or surfactant or cyclodextrin, 30% HS15",1420 µg/mL
same,solubility,"[1]; Oleoyl macrogol-6 / polyoxyl-6 glycerides (Labrafil M1944CS), oil or lipid",807 µg/mL
same,solubility,"[1]; aqueous with cosolvent or surfactant or cyclodextrin, 1% D-a-Tocopheryl polyethylene glycol 1000 succinate (TPGS)",99 µg/mL
same,solubility,"[1]; aqueous with cosolvent or surfactant or cyclodextrin, 10% polyoxyethylated 12-hydroxystearic acid (Solutol HS 15)",460 µg/mL
same,Water solubility (in words),[1]; water,poorly water soluble
same,solubility,[1]; water,8 µg/mL
same,Suppression of pruritus,[2],significantly suppressed pruritus
